Measured values taken from patent publication US20230339952A1, “MACROCYCLIC HETEROCYCLES AND USES THEREOF” (Kumquat Biosciences Inc., priority 2022, published 2023).
Like-named read-outs stand apart in the source and are kept apart here.

Assays:
SOS1 = SOS1 (Homo sapiens (Human), UniProt Q07889); experiment: Ras-SOS interaction assay (HTRF), K-Ras G13D utilized; format: binding; details: K-Ras G13D
Source text: For example, the equilibrium interaction of human SOS1 (hSOS1) with human wildtype Kras or K-Ras mutant (e.g., hK-Ras G12C mutant, or hK-Ras G12C) can be assessed as a proxy or an indication for a subject compound's ability to inhibit SOS. Detection of such interaction is achieved by measuring homogenous time-resolved fluorescence resonance energy transfer (HTRF) from (i) a fluorescence resonance energy transfer (FRET) donor (e.g., antiGST-Europium) that is bound to GST-tagged K-Ras G12C to (ii) a FRET acceptor (e.g., anti-6His-XL665) bound to a His-tagged hSOS1.
A Ras working solution is prepared in assay buffer containing typically 10 nM of the protein construct (e.g., GST-tagged hK-Ras G12C) and 2 nM of the FRET donor (e.g., antiGST-Eu(K) from Cisbio, France). A SOS1 working solution is prepared in assay buffer containing typically 10 nM of the protein construct (e.g., His-hSOS1) and 10 nM of the FRET acceptor (e.g., anti-6His-XL665 from Cisbio, France). An inhibitor control solution is prepared in assay buffer containing 10 nM of the FRET acceptor without the SOS1 protein.
A fixed reaction mixture with or without test compound is transferred into a 384-well plate. Ras working solution is added to all wells of the test plate. SOS1 working solution is added to all wells except for those that are subsequently filled with the inhibitor control solution. […] The ratiometric data (i.e., emission 2 divided by emission 1) is used to calculate IC50 values against SOS1 using GraphPad Prism (GraphPad software).

[1] = tested on: NCI-H1975 (ATCC CRL-5908) cell line comprising an EGFR T790M L858R double mutation; experiment: EGFR-SOS cellular inhibition assay (CellTiter-Glo cell proliferation); format: cell-based; details: Homo sapiens
Description: A CellTiter-Glo (CTG) luminescent based assay (Promega) is used to assess growth of the cells, as a measurement of the ability of the compounds herein to inhibit EGFR signaling in the cells. […] The day after plating, cells are treated with a dilution series (e.g., a 9 point 3-fold dilution series) of the compounds herein (e.g., approximately 125 μL final volume per well).

[2] = 120 h, NCI-H1975 cell proliferation, approximately 5 days, read-out: H1975 IC50
[3] = read-out: IC50 value against SOS1
[4] = NCI-H1975, EGFR T790M L858R double mutation, read-out: IC50 in inhibiting growth of NCI-H1975 cell line

Sequence of SOS1 (Q07889 564-1049): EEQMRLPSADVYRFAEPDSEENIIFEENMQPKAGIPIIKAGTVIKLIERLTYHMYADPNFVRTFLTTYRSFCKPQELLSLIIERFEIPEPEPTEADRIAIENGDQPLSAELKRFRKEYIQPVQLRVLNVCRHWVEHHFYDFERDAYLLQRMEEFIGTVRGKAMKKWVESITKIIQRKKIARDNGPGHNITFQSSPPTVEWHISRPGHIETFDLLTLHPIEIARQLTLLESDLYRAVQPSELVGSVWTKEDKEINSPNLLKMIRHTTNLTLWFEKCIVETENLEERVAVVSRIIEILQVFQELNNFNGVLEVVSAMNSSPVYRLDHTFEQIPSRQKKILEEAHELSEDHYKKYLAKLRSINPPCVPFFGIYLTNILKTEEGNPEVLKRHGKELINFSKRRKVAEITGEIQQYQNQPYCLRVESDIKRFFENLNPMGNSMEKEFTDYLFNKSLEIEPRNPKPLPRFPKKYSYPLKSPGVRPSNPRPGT

Row | IC50 (SOS1; read-out: SOS1 IC50) | IC50 [1, 2] | IC50 (SOS1; [3]) | IC50 [1, 4] | Compound
1 | < 100 nM | < 1000 nM | – | – | CC(C)N1CCN(c2cc3c4ncnc3n(c2=O)CCOCCCCN2CCC(CC2)CC(F)(F)c2cccc(c2F)[C@@H](C)N4)CC1 [Compound 135, (3R)-4^2,5,5-trifluoro-1^6-(4-isopropylpiperazin-1-yl)-3-methyl-1^7,1^8-dihydro-12-oxa-2-aza-1(4,8)-pyrido[2,3-d]pyrimidina-7(4,1)-piperidina-4(1,3)-benzenacyclotetradecaphan-1^7-one]
2 | < 100 nM | < 1000 nM | – | – | CC1CCCCCn2c(=O)c(C3(C#N)CC3)cc3c(ncnc32)N[C@H](C)c2cccc(c2F)C(F)(F)C2CCN(CC2)C1 (stereo partly drawn) [Compound 20, 1-((4R)-3^2,2,2-trifluoro-4,12-dimethyl-6^7-oxo-6^7,6^8-dihydro-5-aza-6(4,8)-pyrido[2,3-d]pyrimidina-1(4,1)-piperidina-3(1,3)-benzenacyclotridecaphane-6^6-yl)cyclopropane-1-carbonitrile]
3 | < 100 nM | < 1000 nM | – | – | C[C@H]1Nc2ncnc3c2cc(C2(C#N)CCS(=O)(=O)CC2)c(=O)n3CCCOCCCN2CCC(CC2)CC(F)(F)c2cccc1c2 [Compound 189, 4-((3R)-5,5-difluoro-3-methyl-1^7-oxo-1^7,1^8-dihydro-11-oxa-2-aza-1(4,8)-pyrido[2,3-d]pyrimidina-7(4,1)-piperidina-4(1,3)-benzenacyclotetradecaphane-1^6-yl)tetrahydro-2H-thiopyran-4-carbonitrile 1,1-dioxide]
4 | < 100 nM | < 1000 nM | – | – | C[C@H]1Nc2ncnc3c2cc(C2(C#N)CC2)c(=O)n3CC(=O)N(C)CCCCN2CCC(CC2)C(F)(F)c2cccc1c2F [Compound 128, 1-((4R)-3^2,2,2-trifluoro-4,9-dimethyl-6^7,8-dioxo-6^7, 6^8-dihydro-5,9-diaza-6(4,8)-pyrido[2,3-d]pyrimidina-1(4,1)-piperidina-3(1,3)-benzenacyclotridecaphane-6^6-yl)cyclopropane-1-carbonitrile]
5 | < 100 nM | < 1000 nM | – | – | C[C@H]1Nc2ncnc3c2cc(C2(C#N)CC2)c(=O)n3CC(=O)NCCCCN2CCC(CC2)C(F)(F)c2cccc1c2 [Compound 132, 1-((4R)-2,2-difluoro-4-methyl-6^7,8-dioxo-6^7,6^8-dihydro-5,9-diaza-6(4,8)-pyrido[2,3-d]pyrimidina-1(4,1)-piperidina-3(1,3)-benzenacyclotridecaphane-6^6-yl)cyclopropane-1-carbonitrile]
6 | < 100 nM | < 1000 nM | – | – | CC(C)N1CCN(c2cc3c4ncnc3n(c2=O)CCCOCCCCN2CCC(CC2)C(F)(F)c2cccc(c2F)[C@@H](C)N4)CC1 [Compound 77, (4R)-3^2,2,2-trifluoro-6^6-(4-isopropylpiperazin-1-yl)-4-methyl-6^7,6^8-dihydro-10-oxa-5-aza-6(4,8)-pyrido[2,3-d]pyrimidina-1(4,1)-piperidina-3(1,3)-benzenacyclotetradecaphan-6^7-one]
7 | < 100 nM | < 1000 nM | – | – | C[C@H]1Nc2ncnc3c2cc(C2(C#N)CC2)c(=O)n3CCCNC(=O)CCN2CCC(CC2)C(F)(F)c2cccc1c2F [Compound 11, 1-((4R)-3^2,2,2-trifluoro-4-methyl-6^7,11-dioxo-6^7,6^8-dihydro-5,10-diaza-6(4,8)-pyrido[2,3-d]pyrimidina-1(4,1)-piperidina-3(1,3)-benzenacyclotridecaphane-6^6-yl)cyclopropane-1-carbonitrile]
8 | < 100 nM | < 1000 nM | – | – | C[C@H]1Nc2ncnc3c2cc(C2CCS(=O)(=O)CC2)c(=O)n3CC(=O)N(C)CCCCN2CCC(CC2(C)C)C(F)(F)c2cccc1c2 (stereo partly drawn) [Compound 78, (1^4R,4R)-6^6-(1,1-dioxidotetrahydro-2H-thiopyran-4-yl)-2,2-difluoro-1^2,1^2,4,9-tetramethyl-6^7,6^8-dihydro-5,9-diaza-6(4,8)-pyrido[2,3-d]pyrimidina-1(4,1)-piperidina-3(1,3)-benzenacyclotridecaphane-6^7,8-dione]
9 | < 100 nM | < 1000 nM | – | – | C[C@H]1Nc2ncnc3c2cc(C2CCS(=O)(=O)CC2)c(=O)n3CC(=O)NCCCCN2CCC(CC2)C(F)(F)c2cccc1c2 [Compound 60, (4R)-6^6-(1,1-dioxidotetrahydro-2H-thiopyran-4-yl)-2,2-difluoro-4-methyl-6^7,6^8-dihydro-5,9-diaza-6(4,8)-pyrido[2,3-d]pyrimidina-1(4,1)-piperidina-3(1,3)-benzenacyclotridecaphane-6^7,8-dione]
10 | 100 to 5000 nM | < 1000 nM | – | – | Cc1nc2c3cc(C4(C#N)CC4)c(=O)n(c3n1)CC/C=C\CN1CCC(CC1)C(F)(F)c1cccc(c1)[C@@H](C)N2 [Compound 172, 1-((4R,Z)-2,2-difluoro-6^2,4-dimethyl-6^7-oxo-6^7,6^8-dihydro-5-aza-6(4,8)-pyrido[2,3-d]pyrimidina-1(4,1)-piperidina-3(1,3)-benzenacycloundecaphan-9-en-6^6-yl)cyclopropane-1-carbonitrile]
11 | < 100 nM | < 1000 nM | – | – | C[C@H]1Nc2ncnc3c2cc(C2(C#N)CC2)c(=O)n3CCCCCCCN2CCC(CC2(C)C)C(F)(F)c2cccc1c2 (stereo partly drawn) [Compound 43, 1-((4R)-2,2-difluoro-1^2,1^2,4-trimethyl-6^7-oxo-6^7,6^8-dihydro-5-aza-6(4,8)-pyrido[2,3-d]pyrimidina-1(4,1)-piperidina-3(1,3)-benzenacyclotridecaphane-6^6-yl)cyclopropane-1-carbonitrile]
12 | < 100 nM | < 1000 nM | – | – | C[C@H]1Nc2ncnc3c2cc(C2(C#N)CC2)c(=O)n3CCCCNC(=O)CN2CCC(CC2)C(F)(F)c2cccc1c2 [Compound 124, 1-((4R)-2,2-difluoro-4-methyl-6^7,12-dioxo-6^7,6^8-dihydro-5,11-diaza-6(4,8)-pyrido[2,3-d]pyrimidina-1(4,1)-piperidina-3(1,3)-benzenacyclotridecaphane-6^6-yl)cyclopropane-1-carbonitrile]
13 | < 100 nM | < 1000 nM | < 50 nM | < 500 nM | C[C@H]1Nc2ncnc3c2cc(C2(C#N)CCS(=O)(=O)CC2)c(=O)n3CCCCCCCN2CC(C2)CC(F)(F)c2cccc1c2 [Compound 210, 4-((3R)-5,5-difluoro-3-methyl-1^7-oxo-1^7,1^8-dihydro-2-aza-1(4,8)-pyrido[2,3-d]pyrimidina-7(3,1)-azetidina-4(1,3)-benzenacyclotetradecaphane-1^6-yl)tetrahydro-2H-thiopyran-4-carbonitrile 1,1-dioxide]
14 | < 100 nM | < 1000 nM | – | – | Cc1nc2c3cc(C4(C#N)CC4)c(=O)n(c3n1)CCCCC/C=C\COCC(F)(F)c1cccc(c1F)[C@@H](C)N2 [Compound 109, 1-((3R,Z)-4^2,5,5-trifluoro-1^2,3-dimethyl-1^7-oxo-1^7,1^8-dihydro-7-oxa-2-aza-1(4,8)-pyrido[2,3-d]pyrimidina-4(1,3)-benzenacyclopentadecaphan-9-en-1^6-yl)cyclopropane-1-carbonitrile]
15 | 100 to 5000 nM | 1000 to 10000 nM | – | – | Cc1nc2c3cc(C4(C#N)CC4)c(=O)n(c3n1)CCCCCCCOCC(F)(F)c1cccc(c1F)[C@@H](C)N2 [Compound 44, 1-((3R)-4^2,5,5-trifluoro-1^2,3-dimethyl-1^7-oxo-1^7,1^8-dihydro-7-oxa-2-aza-1(4,8)-pyrido[2,3-d]pyrimidina-4(1,3)-benzenacyclotetradecaphane-1^6-yl)cyclopropane-1-carbonitrile]
16 | 100 to 5000 nM | > 10000 nM | – | – | Cc1nc2c3cc(C4(C#N)CC4)c(=O)n(c3n1)CCCCCOCC(F)(F)c1cccc(c1F)[C@@H](C)N2 [Compound 88, 1-((3R)-4^2,5,5-trifluoro-1^2,3-dimethyl-1^7-oxo-1^7,1^8-dihydro-7-oxa-2-aza-1(4,8)-pyrido[2,3-d]pyrimidina-4(1,3)-benzenacyclododecaphane-1^6-yl)cyclopropane-1-carbonitrile]
17 | < 100 nM | < 1000 nM | < 50 nM | < 500 nM | C[C@H]1Nc2ncnc3c2cc(C2CCS(=O)(=O)CC2)c(=O)n3CCCCCCCN2CC(C2)CC(F)(F)c2cccc1c2F [Compound 212, (3R)-1^6-(1,1-dioxidotetrahydro-2H-thiopyran-4-yl)-4^2,5,5-trifluoro-3-methyl-1^7,1^8-dihydro-2-aza-1(4,8)-pyrido[2,3-d]pyrimidina-7(3,1)-azetidina-4(1,3)-benzenacyclotetradecaphan-1^7-one]
18 | < 100 nM | < 1000 nM | – | – | C[C@H]1Nc2ncnc3c2cc(C2(C#N)CC2)c(=O)n3CCCCCC(O)CN2CCC(CC2)C(F)(F)c2cccc1c2 (stereo partly drawn) [Compound 58, 1-((4R)-2,2-difluoro-12-hydroxy-4-methyl-6^7-oxo-6^7,6^8-dihydro-5-aza-6(4,8)-pyrido[2,3-d]pyrimidina-1(4,1)-piperidina-3(1,3)-benzenacyclotridecaphane-6^6-yl)cyclopropane-1-carbonitrile]
